# Experiment: Biodistribution study in LNCaP tumor-bearing mice (Th227 counted in organs)
# Type: in vivo, SCID mice
# Outline: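 SCID mice bearing testosterone pellets and subcutaneous LNCaP flank tumors (~50 mm^2) received a single intravenous dose of the radioactive compound. At set time points, n=3 animals were sacrificed, and organs were removed, weighed and counted for Th227 on a Germanium detector.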
structure (smiles),measurement,setting,value
"O=C([O-])CN1CCN(CC(=O)[O-])CCN(CC(=O)NCC2CCC(C(=O)NC(Cc3ccc4ccccc4c3)C(=O)NCCCCC(NC(=O)NC(CCC(=O)O)C(=O)O)C(=O)O)CC2)CCN(CC(=O)[O-])CC1.[227Th+4] [Example 1-B-227Th, [^227Th]Thorium (3S,10S,14S)-3-[(naphthalen-2-yl)methyl]-1,4,12-trioxo-1-{(1r,4S)-4-[(2-{4,7,10-tris[(carboxy-kappaO)methyl]-1,4,7,10-tetraazacyclododecan-1-yl-kappa^4N^1,N^4,N^7,N^10}acetamido)methyl]cyclohexyl}-2,5,11,13-tetraazahexadecane-10,14,16-tricarboxylate]",Th-227 in Liver,"6 hr, 500 kBq/kg, study b2999",0.19 % ID Th-227/g organ
same,Th-227 in Salivary gland,"6 hr, 500 kBq/kg, study b2999",2.84 % ID Th-227/g organ
same,Th-227 in Spleen,"6 hr, 500 kBq/kg, study b2999",0.73 % ID Th-227/g organ
same,Th-227 in Tumor,"6 hr, 500 kBq/kg, study b2999",9.80 % ID Th-227/g organ
same,Th-227 in prostate,"6 hr, 500 kBq/kg, study b2999",6.41 % ID Th-227/g organ
same,Th-227 in Blood,"24 h, 500 kBq/kg, study b2999",0.01 % ID Th-227/g organ
same,Th-227 in Femur and tibia,"24 h, 500 kBq/kg, study b2999",0.23 % ID Th-227/g organ
same,Th-227 in Kidneys,"24 h, 500 kBq/kg, study b2999",26.81 % ID Th-227/g organ
same,Th-227 in Liver,"24 h, 500 kBq/kg, study b2999",0.18 % ID Th-227/g organ
same,Th-227 in Salivary gland,"24 h, 500 kBq/kg, study b2999",1.24 % ID Th-227/g organ
same,Th-227 in Spleen,"24 h, 500 kBq/kg, study b2999",0.33 % ID Th-227/g organ
same,Th-227 in Tumor,"24 h, 500 kBq/kg, study b2999",14.45 % ID Th-227/g organ
same,Th-227 in prostate,"24 h, 500 kBq/kg, study b2999",0.00 % ID Th-227/g organ
same,Th-227 in Blood,"24 h, 1500 kBq/kg",0.02% ID Th-227/g organ
same,Th-227 in Liver,"24 h, 1500 kBq/kg",1.05% ID Th-227/g organ
same,Th-227 in Spleen,"24 h, 1500 kBq/kg",1.24% ID Th-227/g organ
same,Th-227 in Tumor,"24 h, 1500 kBq/kg",9.81% ID Th-227/g organ
same,Th-227 in bone,"24 h, 1500 kBq/kg",9.38% ID Th-227/g organ
same,Th-227 in brain,"24 h, 1500 kBq/kg",0.00% ID Th-227/g organ
same,Th-227 in kidney,"24 h, 1500 kBq/kg",11.30% ID Th-227/g organ
same,Th-227 in large intestine,"24 h, 1500 kBq/kg",0.12% ID Th-227/g organ
same,Th-227 in lung,"24 h, 1500 kBq/kg",0.50% ID Th-227/g organ
same,Th-227 in muscle,"24 h, 1500 kBq/kg",0.16% ID Th-227/g organ
same,Th-227 in prostate,"24 h, 1500 kBq/kg",0.00% ID Th-227/g organ
same,Th-227 in salivary glands,"24 h, 1500 kBq/kg",0.32% ID Th-227/g organ
same,Th-227 in small intestine,"24 h, 1500 kBq/kg",0.23% ID Th-227/g organ
same,Th-227 in Blood,"72 h, 500 kBq/kg, study b2999",0.00 % ID Th-227/g organ
same,Th-227 in Femur and tibia,"72 h, 500 kBq/kg, study b2999",0.33 % ID Th-227/g organ
same,Th-227 in Kidneys,"72 h, 500 kBq/kg, study b2999",19.30 % ID Th-227/g organ
same,Th-227 in Liver,"72 h, 500 kBq/kg, study b2999",0.26 % ID Th-227/g organ
same,Th-227 in Salivary gland,"72 h, 500 kBq/kg, study b2999",0.73 % ID Th-227/g organ
same,Th-227 in Spleen,"72 h, 500 kBq/kg, study b2999",0.92 % ID Th-227/g organ
same,Th-227 in Tumor,"72 h, 500 kBq/kg, study b2999",21.94 % ID Th-227/g organ
same,Th-227 in prostate,"72 h, 500 kBq/kg, study b2999",0.00 % ID Th-227/g organ
same,Th-227 in Blood,"96 h, 1500 kBq/kg",0.00% ID Th-227/g organ
same,Th-227 in Liver,"96 h, 1500 kBq/kg",1.56% ID Th-227/g organ
same,Th-227 in Spleen,"96 h, 1500 kBq/kg",2.79% ID Th-227/g organ
same,Th-227 in Tumor,"96 h, 1500 kBq/kg",10.02% ID Th-227/g organ
same,Th-227 in bone,"96 h, 1500 kBq/kg",10.31% ID Th-227/g organ
same,Th-227 in brain,"96 h, 1500 kBq/kg",0.00% ID Th-227/g organ
same,Th-227 in kidney,"96 h, 1500 kBq/kg",1.96% ID Th-227/g organ
same,Th-227 in large intestine,"96 h, 1500 kBq/kg",0.12% ID Th-227/g organ
same,Th-227 in lung,"96 h, 1500 kBq/kg",0.55% ID Th-227/g organ
same,Th-227 in muscle,"96 h, 1500 kBq/kg",0.08% ID Th-227/g organ
same,Th-227 in prostate,"96 h, 1500 kBq/kg",0.00% ID Th-227/g organ
same,Th-227 in salivary glands,"96 h, 1500 kBq/kg",0.42% ID Th-227/g organ
same,Th-227 in small intestine,"96 h, 1500 kBq/kg",0.21% ID Th-227/g organ
same,Th-227 in Blood,"168 h, 500 kBq/kg, study b2999",0.00 % ID Th-227/g organ
same,Th-227 in Femur and tibia,"168 h, 500 kBq/kg, study b2999",0.18 % ID Th-227/g organ
same,Th-227 in Kidneys,"168 h, 500 kBq/kg, study b2999",3.56 % ID Th-227/g organ
same,Th-227 in Liver,"168 h, 500 kBq/kg, study b2999",0.21 % ID Th-227/g organ
same,Th-227 in Salivary gland,"168 h, 500 kBq/kg, study b2999",0.00 % ID Th-227/g organ
same,Th-227 in Spleen,"168 h, 500 kBq/kg, study b2999",0.31 % ID Th-227/g organ
same,Th-227 in Tumor,"168 h, 500 kBq/kg, study b2999",9.80 % ID Th-227/g organ
same,Th-227 in prostate,"168 h, 500 kBq/kg, study b2999",0.00 % ID Th-227/g organ
same,Th-227 in Blood,"336 h, 500 kBq/kg, study b2999",0.00 % ID Th-227/g organ
same,Th-227 in Femur and tibia,"336 h, 500 kBq/kg, study b2999",0.25 % ID Th-227/g organ
same,Th-227 in Kidneys,"336 h, 500 kBq/kg, study b2999",0.78 % ID Th-227/g organ
same,Th-227 in Liver,"336 h, 500 kBq/kg, study b2999",0.17 % ID Th-227/g organ
same,Th-227 in Salivary gland,"336 h, 500 kBq/kg, study b2999",0.00 % ID Th-227/g organ
same,Th-227 in Spleen,"336 h, 500 kBq/kg, study b2999",0.15 % ID Th-227/g organ
same,Th-227 in Tumor,"336 h, 500 kBq/kg, study b2999",7.78 % ID Th-227/g organ
same,Th-227 in prostate,"336 h, 500 kBq/kg, study b2999",0.00 % ID Th-227/g organ
